Assays:
[1] = Example 5: plasma pharmacokinetics of EN3202 20 mg in hepatic impairment vs healthy controls; set-up: AUC point estimate, mild hepatic impairment vs healthy controls / Cmax point estimate, mild hepatic impairment vs healthy controls: unit not given beside the values; settings: for AUCT / Cmax / T½ / λz / AUC: mean (SD); for Tmax: median (range); for AUC: plasma, single 20 mg EN3202, fasting; for mean (±SD) ratio of plasma metabolite AUC to oxymorphone AUC: AUC converted to molar concentrations; for increase in average AUC relative to controls: arithmetic means; for conversion of oxymorphone to the metabolite reduced by: from mean plasma metabolite ratios
Experimental: (§1) While in the clinic, the subjects were to refrain from strenuous physical activity.
All study medications were supplied by the sponsor. […] A single 20 mg dose EN3202 was administered following an overnight fast (from approximately 22:00 on the evening prior to dose administration) at approximately 08:00, and participants were not allowed to eat until at least four hours after the dose.
All doses were administered with 240 mL of ambient water. Participants were instructed to drink all of the water.
Pharmacokinetic parameters were calculated using model-independent methods.
All pharmacokinetic results are summarized using appropriate descriptive statistics. […] One-way ANOVA was conducted using the model PKVAR=group, where group was mild hepatic impairment, moderate-severe hepatic impairment, or healthy control. Point estimates of the impaired versus control group differences and the corresponding 90% confidence limits were constructed.

[2] = Example 5: urinary excretion of oxymorphone and metabolites in hepatic impairment vs healthy controls; settings: for mean amount excreted in the urine: percent of administered dose, through 120 hours; for conversion of oxymorphone to the metabolite reduced by: from urine ratios
Description: as §1

[3] = 10 mg oral oxymorphone, cited from earlier work
[4] = moderate-severe hepatic impairment

SMILES | AUCT ([1]; Healthy Controls) | Cmax ([1]; Healthy Controls) | T½ ([1]; Healthy Controls) | λz ([1]; Healthy Controls) | Tmax ([1]; Healthy Controls) | AUC ([1]; Healthy Controls) | AUCT ([1]; Mild Impairment) | Cmax ([1]; Mild Impairment) | T½ ([1]; Mild Impairment) | λz ([1]; Mild Impairment) | Tmax ([1]; Mild Impairment) | AUC ([1]; Mild Impairment) | AUCT ([1]; Moderate-Severe Impairment) | Cmax ([1]; Moderate-Severe Impairment) | T½ ([1]; Moderate-Severe Impairment) | λz ([1]; Moderate-Severe Impairment) | Tmax ([1]; Moderate-Severe Impairment) | AUC ([1]; Moderate-Severe Impairment) | mean (±SD) ratio of plasma metabolite AUC to oxymorphone AUC ([1]; controls) | conversion of oxymorphone to the metabolite reduced by ([1]; mild hepatic impairment) | further results
CN1CC[C@]23c4c5ccc(O)c4O[C@H]2C(O)CC[C@@]3(O)[C@H]1C5 (stereo partly drawn) [6-OH-oxymorphone, 6-hydroxy oxymorphone] | 10.80 (9.65) ng · hr/mL | 0.72 (0.32) ng/mL | 19.19 (11.75) hr | 0.0532 (0.0356) hr^−1 | 1.25 (1.0-4.0) hr | 14.76 (11.51) ng · hr/mL | 14.11 (9.73) ng · hr/mL | 1.12 (0.79) ng/mL | 17.54 (13.12) hr | 0.0545 (0.0269) hr^−1 | 1.25 (0.5-3.0) hr | 17.35 (11.17) ng · hr/mL | 29.25 (20.17) ng · hr/mL | 1.78 (1.00) ng/mL | 13.87 (8.02) hr | 0.0632 (0.0303) hr^−1 | 1.75 (1.0-6.0) hr | 32.12 (19.80) ng · hr/mL | 0.66 (0.30) | approximately 17% | increase in average AUC relative to controls ([1]; mild hepatic impairment): 1.18 fold; AUC increase relative to healthy controls ([1]; mild hepatic impairment, log-transformed comparison): 1.36 fold; mean (±SD) ratio of plasma metabolite AUC to oxymorphone AUC ([1]; mild impairment): 0.55 (0.10); Cmax increase relative to healthy controls ([1]; mild impairment, log-transformed comparison): 1.40 fold; conversion of oxymorphone to the metabolite reduced by [1, 4]: ~26%; mean (±SD) ratio of plasma metabolite AUC to oxymorphone AUC ([1]; moderate-severe impairment): 0.49 (0.37); increase in average AUC relative to controls ([1]; moderate-severe impairment): 2.18 fold; urinary excretion essentially complete by ([2]; after single 20 mg dose): ≤ 96 h; mean amount excreted in the urine ([2]; control group): 0.25%; mean amount excreted in the urine ([2]; mild hepatic impairment): 0.71%; mean amount excreted in the urine [2, 4]: 0.88%; Urinary recovery, conjugated [3]: 2.6%; Urinary recovery, free [3]: ~0.3%; Urinary recovery, of the dose ([3]; free plus conjugated): approximately 3%
CN1CC[C@]23c4c5ccc(O[C@@H]6O[C@H](C(=O)O)[C@@H](O)[C@H](O)[C@H]6O)c4O[C@H]2C(=O)CC[C@@]3(O)[C@H]1C5 [Oxymorphone-3-glucuronide, oxymorphone-3-glucuronide] | 2886.8 (883.9) ng · hr/mL | 234.3 (41.7) ng/mL | 8.89 (3.00) hr | 0.0859 (0.0264) hr^−1 | 3.0 (1.5-4.0) hr | 2979.6 (896.1) ng · hr/mL | 2836.7 (1091.9) ng · hr/mL | 274.1 (95.8) ng/mL | 8.21 (3.87) hr | 0.0974 (0.0367) hr^−1 | 3.0 (3.0-4.0) hr | 2954.1 (1136.2) ng · hr/mL | 2629.3 (1457.8) ng · hr/mL | 212.0 (100.5) ng/mL | 7.40 (2.98) hr | 0.1075 (0.0435) hr^−1 | 3.5 (3.0-4.0) hr | 2713.9 (1498.6) ng · hr/mL | 104.1 (39.5) | approximately 35% | circulating concentrations exceed those of the parent compound by ([1]; healthy control group): approximately 100 fold; AUC point estimate, mild hepatic impairment vs healthy controls ([1]; mild hepatic impairment): 0.972; Cmax point estimate, mild hepatic impairment vs healthy controls ([1]; mild hepatic impairment): 1.133; mean (±SD) ratio of plasma metabolite AUC to oxymorphone AUC ([1]; mild impairment): 67.2 (27.0); conversion of oxymorphone to the metabolite reduced by [1, 4]: ~56%; AUC as percent of control ([1]; moderate-severe impairment): approximately 80%; Cmax as percent of control ([1]; moderate-severe impairment): approximately 80%; circulating concentrations exceed those of the parent compound by ([1]; moderate-severe impairment): 45 fold; mean (±SD) ratio of plasma metabolite AUC to oxymorphone AUC ([1]; moderate-severe impairment): 45.52 (39.2); mean metabolite-to-parent ratio lower than in the control group ([1]; moderate-severe impairment, in both plasma and urine): 2,3 fold; mean amount excreted in the urine ([2]; control group): 38.1%; mean ratio metabolite:oxymorphone excreted in the urine ([2]; healthy controls): 79.05; mean ratio metabolite:oxymorphone excreted in the urine ([2]; mild hepatic impairment): 39.43; conversion of oxymorphone to the metabolite reduced by ([2]; mild hepatic impairment): approximately 50%; mean amount excreted in the urine ([2]; mild hepatic impairment): 39.3%; mean ratio metabolite:oxymorphone excreted in the urine [2, 4]: 33.76; conversion of oxymorphone to the metabolite reduced by [2, 4]: ~57%; mean amount excreted in the urine [2, 4]: 33.7%

— patent US20080318993A1 (Endo Pharmaceuticals, Inc., priority 2007, published 2008)
